According to patent US10385045B2, “Compound having EP2 agonist activity” (ONO PHARMACEUTICAL CO., LTD., priority 2015, dated 2019):
Read-outs that look alike come from different tables or passages of the source.

Experiments:
human EP2 receptor = target: T1, human EP2 receptor (Homo sapiens, UniProt P43116); test: Measurement of EP2 agonist activity (cAMP concentration) in EP2-CHO cells; type: cell-based
T1 construct: expressed in transfected cells; host or cells: CHO cells (EP2-CHO)
Method: (1) Measurement of Agonist Activity on Various Prostanoid Receptors
Using Chem1 cells or CHO cells in which various prostanoid receptors were forcibly expressed, respectively, agonist activities of test compounds on various prostanoid receptors was determined employing, as a measure, an intracellular cyclic AMP (hereinbelow, abbreviated as “cAMP”) production amount or an intracellular calcium concentration.
Each of the test compound and a control substance (PGE2 and PGF2α) was dissolved in dimethyl sulfoxide (DMSO) to prepare a 10 mmol/L solution. The 10 mmol/L solution thus prepared was thawed upon use, was then serially diluted with DMSO, and was then diluted with a buffered solution for measurement or a buffered solution for measurement 2, and then the resulting solution was subjected to an experiment.
Cells, in which various prostanoid receptors were respectively forcibly expressed, were subjected to static culture at 37° C. in the presence of 5% CO2 using a DMEM medium (Sigma) (for culturing FP-Chem1 cells) containing inactivated (56° C., 30 minutes) 9.8 vol % nondialysed-FBS (Life Technologies), 1 vol % Non Essential Amino Acids (Life Technologies), 10 mmol/L HEPES Buffered solution (Life Technologies), 0.5 vol % GENETICIN (Life Technologies) and 1% penicillin-streptomycin (Life Technologies) or an α-MEM medium (Sigma) (for culturing EP2-CHO cells) containing inactivated (56° C., 30 minutes) 9.8 vol % dialysed-FBS (Life Technologies) and penicillin-streptomycin-glutamine (Life Technologies). Subculturing was carried out in the following manner.
The medium was removed from a culture, and the culture was washed with Ca^2+-free and Mg^2+-free phosphate-buffered physiological saline one time. A proper amount of trypsin-EDTA (Life Technologies) was added to the washed product, and then the resultant product was incubated at 37° C. The cells were detached, and then a medium in a volume that is 10-fold the volume of trypsin-EDTA was added thereto to terminate the enzymatic reaction. The cells were collected in a centrifuge tube and then centrifuged at room temperature at 120 g for 3 minutes, and the supernatant was discarded therefrom. The cells were suspended in a proper amount of the medium and seeded in a culture flask.
On the day of measurement, a medium was removed and EP2-CHO cells were washed one time with a phosphate-buffered physiological saline containing 2 mmol/L EDTA and not containing Ca^2+ and Mg^2+. A proper amount of the phosphate-buffered physiological saline containing 2 mmol/L EDTA and not containing Ca^2+ and Mg^2+ was added to the cells, and this was incubated at 37° C. in the presence of 5% CO2. Subsequently, the cells were detached, then collected in a centrifuge tube and then centrifuged at room temperature at 550 g for 3 minutes, and the supernatant was removed therefrom. The cells were suspended in a proper amount of a buffered solution for measurement 1 (a MEM medium (Invitrogen) containing 1.0 w/v % of bovine serum albumin (Sigma) and 2 μmol/L of diclofenac (Sigma)), and the suspension was centrifuged at room temperature at 200 g for 3 minutes, and the supernatant was removed. The cells were suspended in a buffered solution for measurement 2 (MEM medium (Invitrogen) containing 1.0 w/v % of bovine serum albumin (Sigma), 2 μmol/L of diclofenac (Sigma) and 1 mmol/L of 3-isobutyl-1-methylxanthine), and each 25 μL of the suspension was dispensed into a 96-well ½ area plate so that the number of cells per well became […]. The buffered solution for measurement 2 (25 μL) containing a compound at each of various concentrations was added to each well to carry out a reaction at room temperature for 30 minutes. Measurement of a cAMP concentration was carried out using cAMP HTRF HiRange kit (CIS bio International). In accordance with the two-step protocol of the kit manual, each 25 μL of cAMP-D2 and Cryptase each diluted with a lysis buffer were added. […]

[1] = Intraocular pressure lowering activity after ocular instillation in rabbit; type: in vivo; details: male rabbit (NZW), ocular instillation 30 μL, administration concentration 10 μg/mL, 8 hours after the administration
Method: As can be easily understood by a person skilled in the art, in an in vivo test, since regarding all test compounds, carboxylic acid which is an active body has poor corneal permeability, pharmacological action of the active body was evaluated by ocular instillation administration of a compound which had been converted into an ester such as an ethyl ester or an isopropyl ester, or an alcohol.
A test compound-containing solution (30 μL) which had been adjusted to each of various concentrations was ocular instillation-administered to the left or right eye of a male rabbit (NZW (Healthy)) under consciousness, and an intraocular pressure was measured before the administration and 8 hours after the administration. An intraocular pressure before the administration was measured on a day before the administration. In measurement of an intraocular pressure, the rabbit was fixed on a wood-made restrainer, and the rabbit was anesthetized by the ocular instillation-administration of an ocular surface anesthetic agent (Benoxil eye drops 0.4%, Santen Pharmaceutical Co., Ltd.). After fitting a blepharostat (Handaya Co., Ltd.) to the rabbit, intraocular pressures of both eyes were measured (6 cases per group) with a pneumatic applanation flat tonometer (Model 30 Classic, REICHERT). A difference between an intraocular pressure value before the administration of a test compound and an intraocular pressure value after the administration of the test compound was calculated as an intraocular pressure lowering rate in accordance with the equation shown below, and the sustainability of intraocular eye lowering action was evaluated.
The administered concentrations were selected on the basis of the EP2 agonist activities measured by the above-mentioned method.

[2] = EP2-CHO cells, cAMP production, 30 minutes at room temperature, read-out: EC50 (agonist activity on human EP2 receptor)
[3] = comparison compounds from prior art documents, read-out: EC50 (EP2 agonist activity) of prior art compounds with analogous structure

T1 sequence (P43116 whole entry): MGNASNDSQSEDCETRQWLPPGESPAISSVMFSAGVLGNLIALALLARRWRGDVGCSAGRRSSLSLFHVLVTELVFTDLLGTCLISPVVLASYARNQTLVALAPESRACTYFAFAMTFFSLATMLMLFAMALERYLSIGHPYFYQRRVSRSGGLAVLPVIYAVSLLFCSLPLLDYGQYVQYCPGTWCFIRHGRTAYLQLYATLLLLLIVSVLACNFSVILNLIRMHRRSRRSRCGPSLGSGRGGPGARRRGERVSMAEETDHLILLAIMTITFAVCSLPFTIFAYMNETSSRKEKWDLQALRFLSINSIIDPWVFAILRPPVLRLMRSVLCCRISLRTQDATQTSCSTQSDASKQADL

Compound	EC50 (human EP2 receptor; [2]) [nM]	further results
CCCCC[C@H](O)/C=C/[C@@H]1[C@H]2CCC(c3ccccc3CC(=O)O)O[C@H]2C[C@H]1O (stereo partly shown) [reference compound]	–	EC50 (human EP2 receptor; [3]): ≥ 10000 nM
CC(C)OC(=O)c1csc([C@H]2CC[C@@H]3[C@@H](/C=C/COc4ccccc4C(F)(F)F)[C@H](O)C[C@@H]3O2)n1 [Example 4-3, Isopropyl 2-[(2R,4aR,5R,6R,7aS)-6-hydroxy-5-{(1E)-3-[2-(trifluoromethyl)phenoxy]-1-propen-1-yl}octahydrocyclopenta[b]pyran-2-yl]-1,3-thiazole-4-carboxylate]	–	Intraocular pressure lowering rate (%) [1]: 12.1%
Cc1cc(OCC[C@@H]2[C@H]3CC[C@H](c4nc(C(=O)OC(C)C)cs4)O[C@H]3C[C@H]2O)ccc1[N+](=O)[O-] [Example 14, Isopropyl 2-{(2R,4aR,5R,6R,7aS)-6-hydroxy-5-[2-(3-methyl-4-nitrophenoxy)ethyl]octahydrocyclopenta[b]pyran-2-yl}-1,3-thiazole-4-carboxylate]	–	Intraocular pressure lowering rate (%) [1]: 23.6%
O=C(O)c1ccc(C2=CC[C@@H]3[C@@H](/C=C/[C@@H](O)C4CCCC4)[C@H](O)C[C@@H]3O2)o1 [reference compound]	–	EC50 (human EP2 receptor; [3]): ≥ 10000 nM
CCCCCC(F)(F)/C=C/[C@@H]1[C@H]2CC[C@H](c3nc(C(=O)O)cs3)O[C@H]2C[C@H]1O [Example 8, 2-{(2R,4aR,5R,6R,7aS)-5-[(1E)-3,3-Difluoro-1-octen-1-yl]-6-hydroxyoctahydrocyclopenta[b]pyran-2-yl}-1,3-thiazole-4-carboxylic acid]	0.4	–
N#Cc1ccc(CCC(O)/C=C/[C@@H]2[C@H]3CC[C@H](c4nc(C(=O)O)cs4)O[C@H]3C[C@H]2O)cc1 (stereo partly drawn) [Example 10, 2-{(2R,4aR,5R,6R,7aS)-5-[(1E)-5-(4-Cyanophenyl)-3-hydroxy-1-penten-1-yl]-6-hydroxyoctahydrocyclopenta[b]pyran-2-yl}-1,3-thiazole-4-carboxylic acid]	0.29	–
O=C(O)c1csc([C@H]2CC[C@@H]3[C@@H](/C=C/[C@@H](O)COc4ccccc4)[C@H](O)C[C@@H]3OC2)n1 [reference compound]	–	EC50 (human EP2 receptor; [3]): ≥ 10000 nM
COc1ccc(OCCC/C=C/[C@@H]2[C@H]3CC[C@H](c4nc(C(=O)OC(C)C)cs4)O[C@H]3C[C@H]2O)cc1 [Example 4, Isopropyl 2-{(2R,4aR,5R,6R,7aS)-6-hydroxy-5-[(1E)-5-(4-methoxyphenoxy)-1-penten-1-yl]octahydrocyclopenta[b]pyran-2-yl}-1,3-thiazole-4-carboxylate]	–	Intraocular pressure lowering rate (%) [1]: 19.1%

Second part, led by results:

EC50 (human EP2 receptor; [2]) [nM]	Compound	further results
0.11	O=C(O)c1csc([C@H]2CC[C@@H]3[C@@H](/C=C/C(O)CCC4CCCC4)[C@H](O)C[C@@H]3O2)n1 (stereo partly drawn) [Example 10-3, 2-{(2R,4aR,5R,6R,7aS)-5-[(1E)-5-Cyclopentyl-3-hydroxy-1-penten-1-yl]-6-hydroxyoctahydrocyclopenta[b]pyran-2-yl}-1,3-thiazole-4-carboxylic acid]	–
5.8	Cc1ccc(OC/C=C/[C@@H]2[C@H]3CC[C@H](c4nc(C(=O)O)cs4)O[C@H]3C[C@H]2O)cc1 [Example 2-9, 2-{(2R,4aR,5R,6R,7aS)-6-Hydroxy-5-[(1E)-3-(4-methylphenoxy)-1-propen-1-yl]octahydrocyclopenta[b]pyran-2-yl}-1,3-thiazole-4-carboxylic acid]	–
0.1	CCC1([C@@H](O)C/C=C/[C@@H]2[C@H]3CC[C@H](c4nc(C(=O)O)cs4)O[C@H]3C[C@H]2O)CCC1 [Example 11-2, 2-{(2R,4aR,5R,6R,7aS)-5-[(1E,4S)-4-(1-Ethylcyclobutyl)-4-hydroxy-1-buten-1-yl]-6-hydroxyoctahydrocyclopenta[b]pyran-2-yl}-1,3-thiazole-4-carboxylic acid]	–
5.7	Cc1cc(OCC[C@@H]2[C@H]3CC[C@H](c4nc(C(=O)O)cs4)O[C@H]3C[C@H]2O)ccc1[N+](=O)[O-] [Example 13-20, 2-{(2R,4aR,5R,6R,7aS)-6-Hydroxy-5-[2-(3-methyl-4-nitrophenoxy)ethyl]octahydrocyclopenta[b]pyran-2-yl}-1,3-thiazole-4-carboxylic acid]	–
1.8	COc1ccc(OCCC/C=C/[C@@H]2[C@H]3CC[C@H](c4nc(C(=O)O)cs4)O[C@H]3C[C@H]2O)cc1 [Example 2-1, 2-{(2R,4aR,5R,6R,7aS)-6-Hydroxy-5-[(1E)-5-(4-methoxyphenoxy)-1-penten-1-yl]octahydrocyclopenta[b]pyran-2-yl}-1,3-thiazole-4-carboxylic acid]	–
3.9	O=C(O)c1csc([C@H]2CC[C@@H]3[C@@H](/C=C/CCOc4ccccc4)[C@H](O)C[C@@H]3O2)n1 [Example 2-2, 2-{(2R,4aR,5R,6R,7aS)-6-Hydroxy-5-[(1E)-4-phenoxy-1-buten-1-yl]octahydrocyclopenta[b]pyran-2-yl}-1,3-thiazole-4-carboxylic acid]	–
14	O=C(O)c1csc([C@H]2CC[C@@H]3[C@@H](/C=C/CCCOc4ccccc4)[C@H](O)C[C@@H]3O2)n1 [Example 2-4, 2-{(2R,4aR,5R,6R,7aS)-6-Hydroxy-5-[(1E)-5-phenoxy-1-penten-1-yl]octahydrocyclopenta[b]pyran-2-yl}-1,3-thiazole-4-carboxylic acid]	–
1.3	O=C(O)c1csc([C@H]2CC[C@@H]3[C@@H](/C=C/COc4ccccc4C(F)(F)F)[C@H](O)C[C@@H]3O2)n1 [Example 2-16, 2-[(2R,4aR,5R,6R,7aS)-6-Hydroxy-5-{(1E)-3-[2-(trifluoromethyl)phenoxy]-1-propen-1-yl}octahydrocyclopenta[b]pyran-2-yl]-1,3-thiazole-4-carboxylic acid]	–
